Results published in patent publication US10731134B2, “Production method for artificial cancer stem cell and induced differentiation method therefor” (Public University Corporation Yokohama City University, priority 2011, dated 2020).
Entries after “also recorded” stand apart in the source; their conditions may differ.

Tests used:
[1] = system: (CD44high/CD24low) cancer stem cells; conditions: mixed population of cancer stem cells and cancer cells; Gupta et al. 2009; cited from earlier work
[2] = system: (CD44low/CD24high) cancer cells; conditions: mixed population of cancer stem cells and cancer cells; Gupta et al. 2009; cited from earlier work
[3] = system: CSC-10A-D9 induced by differentiation from CSC-10A (induced cancer stem cells); assay: Induced differentiation of CSC-10A by addition of salinomycin (phase-contrast morphology, alkaline phosphatase staining, Western blot); type: cell-based, human
Protocol: Also, these cells were stained with an undifferentiation marker alkaline phosphatase (ALP). […] Next, these cells were lysed and subjected to Western blot.
Induced Differentiation Method for CSC-10A (Addition of Salinomycin)
CSC-10A was seeded over 10-cm dishes. After 24 hours, salinomycin was added to give a final concentration of […] and the culture was continued at 37° C. Four days after the addition of salinomycin, the cells were stained with alkaline phosphatase. The cells were recovered four days after the addition of salinomycin and subjected to Western blot which confirmed the expression of vimentin, β-catenin, and tubulin (control).

[4] = Western blot, 10 μM salinomycin, 4 days after addition

SMILES | Effect on (CD44high/CD24low) cancer stem cells [1] | Effect on (CD44low/CD24high) cancer cells [2] | Staining with undifferentiation marker alkaline phosphatase (ALP-positive cells) ([3]; 10 μM salinomycin vs DMSO, 4 days after addition) | Size of each individual cell ([3]; 10 μM salinomycin vs DMSO, 4 days later) | Cell differentiation / morphology under a phase-contrast microscope ([3]; 10 μM salinomycin vs DMSO, observed 4 days later) | Expression of differentiation (epithelial) marker beta-catenin [3, 4] | Expression of stem cell (mesenchymal) marker vimentin [3, 4]
CC(=O)O[C@H]1C(=O)[C@@]2(C)[C@H]([C@H](OC(=O)c3ccccc3)[C@]3(O)C[C@H](OC(=O)[C@H](O)[C@@H](NC(=O)c4ccccc4)c4ccccc4)C(C)=C1C3(C)C)[C@]1(OC(C)=O)CO[C@@H]1C[C@@H]2O [Taxol] | left intact | only inhibits the growth of cancer cells | – | – | – | – | –
CC[C@@H](C(=O)[C@@H](C)[C@@H](O)[C@H](C)[C@@H]1O[C@@H]([C@@H](CC)C(=O)O)CC[C@@H]1C)[C@H]1O[C@]2(C=C[C@@H](O)[C@]3(CC[C@@](C)([C@H]4CC[C@](O)(CC)[C@H](C)O4)O3)O2)[C@H](C)C[C@@H]1C [salinomycin] | kills only cancer stem cells | leaving cancer cells intact | significant decrease in ALP-positive cells; also recorded: decreased | increased | differentiated into epithelial-like cells | increase | decrease
